Measured values from PMC3983201, “6-Methoxyflavanones as Bitter Taste Receptor Blockers for hTAS2R39” (PLoS ONE, 2014).
Read-outs that look alike come from different tables or passages of the source. Blank lines part the entries; values can stand above or below the compound they belong to.

How the values were obtained:
hTAS2R14 = target: T1, hTAS2R14 (Homo sapiens, UniProt Q9NYV8); assay: Calcium assay of hTAS2R14 activation/inhibition in HEK293 T-Rex Flp-In cells; type: cell-based; settings: for IC50, Simultaneous / Threshold, Simultaneous: simultaneous addition, n.b. = no blocking; for IC50 / Threshold, Stepwise: stepwise addition
T1 construct: first 45 amino acids of rat somatostatin receptor type 3 (sst3 membrane-targeting tag) (N); expressed in transfected cells; host or cells: HEK293 T-Rex Flp-In cells stably expressing Gα16-gust44; induced with doxycycline
T1 sequence (Q9NYV8 1-317): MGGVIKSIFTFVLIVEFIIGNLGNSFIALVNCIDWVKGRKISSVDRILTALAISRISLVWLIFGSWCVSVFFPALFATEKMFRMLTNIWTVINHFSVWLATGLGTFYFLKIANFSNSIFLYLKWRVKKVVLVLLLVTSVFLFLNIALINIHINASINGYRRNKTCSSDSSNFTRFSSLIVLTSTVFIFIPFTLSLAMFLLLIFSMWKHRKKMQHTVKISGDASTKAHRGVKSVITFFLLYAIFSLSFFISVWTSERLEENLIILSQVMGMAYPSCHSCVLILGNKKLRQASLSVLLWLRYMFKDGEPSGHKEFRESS
Description: For functional expression of the human bitter taste receptor hTAS2R39, HEK293 T-Rex Flp-In cells (Invitrogen, San Diego, CA, USA) were used, stably expressing the chimeric G-protein α-subunit Gα16-gust44 (cloned into pcDNA4 (Invitrogen)) and the human bitter receptor genes for hTAS2R39 (cloned into pcDNA5/FRT (Invitrogen)). The bitter receptor gene contained a DNA sequence encoding the first 45 amino acids of rat somatostatin receptor type 3 at its 5′ end (the receptor expression was achieved according to [18] with exception of the HSV-tag), in order to improve membrane targeting of the receptor protein. The same procedure was applied for stable expression of hTAS2R14. Cells were maintained in Dulbecco's Modified Eagle's Medium (DMEM) and 10% (v/v) tetracycline-free FBS (both Lonza, Verviers, Belgium) supplemented with blasticidin (5 μg/mL), geneticin (400 μg/mL) and hygromycin (100 μg/mL) (all from Invitrogen). Cells were grown and maintained at 37 °C and 5% (v/v) CO2.
Cells were seeded into poly-L-lysine-coated (Sigma-Aldrich) 96-well plates (black wall, clear bottom, Greiner bio-one, Frickenhausen, Germany) at a density of 7*10^3 cells in 100 μL/well and cultured for 24 h. Transcription of the receptors was induced by adding 0.25 μg/mL doxycycline (Sigma-Aldrich). […] One hour after loading, cells were washed with Tyrode's buffer and taken up in Tyrode's buffer. Stock solutions of test compounds were prepared in DMSO and diluted to the appropriate concentration in Tyrode's buffer, not exceeding a DMSO concentration of 1% (v/v).
Two methods of compound administration were applied: simultaneous and stepwise addition of potential antagonist and agonist. The first 17 s before compound addition were used for baseline determination. For the simultaneous method, agonist and potential antagonist were pre-mixed, administered after 17 s, and fluorescence was measured for in total 90 s. For the stepwise method, after 17 s, the potential antagonist was added, fluorescence was measured until 120 s, and after 120 s the agonist was added and measured for another 120 s, in total 240 s. […] Each experiment was performed at least in duplicate in separate experiments (as indicated for each figure).
Data processing was done as reported previously. In brief, SoftMax Pro 5.4 software (Molecular Devices Corporation) was used to plot the fluorescence signals. The fluorescence value (ΔF/F0), representing receptor activity, was calculated by subtracting the baseline fluorescence (F0) prior to loading from the maximum fluorescence (F) after compound addition, divided by the signal of the baseline in order to normalize background fluorescence. Dose-response curves were established as non-linear regression curves using Graph Pad Prism (version 4 for Windows, Graph Pad Software, San Diego, CA, USA). Half-maximal effective concentrations (EC50) and half-maximal inhibitory concentrations (IC50) were calculated. Error bars reflect the standard error of the mean (SEM). Statistical analysis was performed in Graph Pad Prism (one-way ANOVA at 5% risk level, followed by Bonferroni's post hoc test).
Inhibition was indicated when [drawing 1] . In case of indicated inhibition, flavanones were applied at different concentrations, in order to test for dose-dependent inhibition, at the EC80 concentration of the agonist. […] To investigate the specificity of flavanones for inhibition of hTAS2R39 and hTAS2R14, another bitter taste receptor, hTAS2R16 (not known to be activated by flavonoids), was used in inhibition experiments ( File S3 ) towards its agonist salicin.

hTAS2R39 = target: T2, hTAS2R39 (Homo sapiens, UniProt P59534); assay: Calcium assay of hTAS2R39 activation/inhibition in HEK293 T-Rex Flp-In cells; type: cell-based
T2 construct: first 45 amino acids of rat somatostatin receptor type 3 (sst3 membrane-targeting tag) (N); expressed in transfected cells; host or cells: HEK293 T-Rex Flp-In cells stably expressing Gα16-gust44; receptor in pcDNA5/FRT, induced with doxycycline
T2 sequence (P59534 1-338): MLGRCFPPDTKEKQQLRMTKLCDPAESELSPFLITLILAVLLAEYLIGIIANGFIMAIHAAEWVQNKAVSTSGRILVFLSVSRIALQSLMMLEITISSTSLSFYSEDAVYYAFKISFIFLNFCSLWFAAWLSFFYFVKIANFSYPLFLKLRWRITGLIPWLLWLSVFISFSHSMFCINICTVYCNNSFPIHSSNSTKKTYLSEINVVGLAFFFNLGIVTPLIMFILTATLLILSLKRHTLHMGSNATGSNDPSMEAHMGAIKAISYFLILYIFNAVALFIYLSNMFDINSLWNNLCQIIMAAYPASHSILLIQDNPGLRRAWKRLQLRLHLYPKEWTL

[1] = inhibition of hTAS2R14 response to 70 μM genistein
[2] = inhibition of hTAS2R14 response to 640 μM ECG

IC50, Simultaneous (hTAS2R14; [1]): n.b.
Threshold, Simultaneous (hTAS2R14; [1]): n.b.
IC50 (hTAS2R14; [1]): ~500 µM
Threshold, Stepwise (hTAS2R14; [1]): 32 µM
maximal signal reduction (hTAS2R39; 1.7 mM denatonium benzoate, simultaneous addition, up to 63 μM): 58%
receptor blocking (hTAS2R39; 1.7 mM denatonium benzoate, stepwise addition): 100%
Threshold, Simultaneous (hTAS2R39; inhibition of hTAS2R39 response to 1.7 mM denatonium benzoate, simultaneous addition, n.b. = no blocking): 8 µM
IC50 (hTAS2R39; inhibition of hTAS2R39 response to 1.7 mM denatonium benzoate, simultaneous addition, n.b. = no blocking, read-out: IC50, Simultaneous): 22 ± 12 µM
Threshold, Stepwise (hTAS2R39; inhibition of hTAS2R39 response to 1.7 mM denatonium benzoate, stepwise addition): 32 µM
IC50 (hTAS2R39; inhibition of hTAS2R39 response to 1.7 mM denatonium benzoate, stepwise addition, read-out: IC50, Stepwise): 55 ± 3 µM
Compound: COc1ccc2c(c1)C(=O)CC(c1ccc(F)cc1)O2 (stereo not drawn) [Compound 6, 4′-Fluoro-6-methoxyflavanone]
blocking of hTAS2R14 (hTAS2R14; 640 μM ECG, simultaneous application): no blocking
inhibition of hTAS2R14 (hTAS2R14; 640 μM ECG, stepwise application): an inhibitory effect was observed
IC50, Simultaneous (hTAS2R14; [2]): n.b.
Threshold, Simultaneous (hTAS2R14; [2]): n.b.
IC50 (hTAS2R14; [2]): 79 ± 25 µM
Threshold, Stepwise (hTAS2R14; [2]): <8 µM
reversibility of inhibition (washout experiment) (hTAS2R39; 200 μM ECG, 100 μM antagonist, washed with Tyrode's buffer, stimulated again): reversible
maximal signal reduction (hTAS2R39; 200 μM ECG, simultaneous addition, reached at 63 μM): 65%
receptor blocking (hTAS2R39; 200 μM ECG, stepwise addition (applied prior to ECG)): 100%
mechanism of antagonism on hTAS2R39 (hTAS2R39; ECG dose-response curves at various antagonist concentrations and wash-out experiments): reversible insurmountable antagonism
Threshold, Simultaneous (hTAS2R39; inhibition of hTAS2R39 response to 200 μM ECG, simultaneous addition, n.b. = no blocking): 8 µM
IC50 (hTAS2R39; inhibition of hTAS2R39 response to 200 μM ECG, simultaneous addition, n.b. = no blocking, read-out: IC50, Simultaneous): 32 ± 7 µM
Threshold, Stepwise (hTAS2R39; inhibition of hTAS2R39 response to 200 μM ECG, stepwise addition): 63 µM
IC50 (hTAS2R39; inhibition of hTAS2R39 response to 200 μM ECG, stepwise addition, read-out: IC50, Stepwise): 102 ± 9 µM
significance of the inhibitory effect at screening concentrations (hTAS2R39; simultaneous application of 200 μM ECG and 250 μM flavanone): significant
reduction of ECG response on hTAS2R39 (screening for inhibition) (hTAS2R39; simultaneous application of 200 μM ECG and 250 μM flavanone, inhibition when response ratio <1): showed reduction of ECG responses

IC50, Simultaneous (hTAS2R14; [1]): n.b.
Threshold, Simultaneous (hTAS2R14; [1]): n.b.
IC50 (hTAS2R14; [1]): 741 ± 143 µM
Threshold, Stepwise (hTAS2R14; [1]): 500 µM
Compound: COc1ccc2c(c1)C(=O)CC(c1ccccc1)O2 (stereo not drawn) [Compound 11, 6-Methoxyflavanone]
IC50, Simultaneous (hTAS2R14; [2]): n.b.
Threshold, Simultaneous (hTAS2R14; [2]): n.b.
IC50 (hTAS2R14; [2]): 447 ± 123 µM
Threshold, Stepwise (hTAS2R14; [2]): 250 µM

inhibition of hTAS2R14 by probenecid in the buffer (hTAS2R14; 0.5 mM probenecid in Tyrode's buffer, agonist equol): did not lead to inhibition
Compound: CCCN(CCC)S(=O)(=O)c1ccc(C(=O)O)cc1 [probenecid, p-(dipropylsulfamyl)benzoic acid, reference compound]
inhibition of hTAS2R39 by probenecid in the buffer (hTAS2R39; 0.5 mM probenecid in Tyrode's buffer, agonist ECG): did not lead to inhibition
